Key:
Settings in all cases: 48 h
SEM cells [1] = experiment: AUC of viability dose-response curve (% viability x log10 dose units); higher = less sensitive
Procedure, shortened: (§1)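 Seeding of medium-adapted leukemia cells was at 500 or 1000 cells/well in 1536-well plates, followed by 48 h at 37°C with library compounds in DMSO at 11 threefold doses from 47 μM to 0.79 nM. CellTiter-Glo One luminescence was normalised per plate to DMSO and cell-free wells and fitted as a four-parameter log-logistic function of log10 dose. Area under the curve was integrated by trapezoidal rule, with curves exceeding full viability scaled and curves failing quality control removed.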

P12-Ichikawa [2] = experiment: as above
Procedure, shortened: as §1

NOMO1 [3] = experiment: as above
Procedure, shortened: as §1

SEM cells [4] = experiment: cell viability relative to DMSO control; higher = less cytotoxic
Procedure, shortened: (§2)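 Library compounds in DMSO were pin-dosed in an 11-point threefold series (47 μM to 0.79 nM) onto leukemia cells in 1536-well plates (5 μl). Plates held 500 cells/well of NOMO1 or SEM or 1000 cells/well of P12-Ichikawa, each adapted for at least four passages in each medium. Luminescence was read with CellTiter-Glo One after 48 h at 37°C. Viability means the per-plate percentage relative to DMSO wells, using cell-free wells as background.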

P12-Ichikawa [5] = experiment: as above
Procedure, shortened: as §2

NOMO1 [6] = experiment: as above
Procedure, shortened: as §2

O=c1c(-c2ccc(O)cc2)coc2cc(O[C@@H]3O[C@H](CO)[C@@H](O)[C@H](O)[C@H]3O)ccc12
AUC of viability dose-response curve
Settings	NOMO1 [3]	P12-Ichikawa [2]	SEM cells [1]
HPLM + 10% dialyzed FBS	456	473	459
RPMI 5 mM glucose + 10% FBS	468	469	450
RPMI 5 mM glucose + 10% dialyzed FBS	467	470	449

cell viability [%], SEM cells [4]
Settings	HPLM + 10% dialyzed FBS	RPMI 5 mM glucose + 10% dialyzed FBS
0.000781 µM	114	124
0.00234 µM	115	124
0.00702 µM	115	128
0.0211 µM	122	119
0.0632 µM	114	135
0.19 µM	120	137
0.569 µM	123	126
1.71 µM	110	111
5.12 µM	121	118
15.4 µM	91.1	100
46.1 µM	79.1	70.1

NCC1(CC(=O)O)CCCCC1
AUC of viability dose-response curve
Settings	NOMO1 [3]	P12-Ichikawa [2]	SEM cells [1]
HPLM + 10% dialyzed FBS	468	466	460
RPMI 5 mM glucose + 10% FBS	442	434	475
RPMI 5 mM glucose + 10% dialyzed FBS	458	459	459

cell viability [%], SEM cells [4]
Settings	HPLM + 10% dialyzed FBS	RPMI 5 mM glucose + 10% dialyzed FBS
0.000781 µM	102	126
0.00234 µM	113	122
0.00702 µM	107	113
0.0211 µM	122	119
0.0632 µM	120	124
0.19 µM	130	117
0.569 µM	96.2	78
1.71 µM	59.5	59.1
5.12 µM	121	140
15.4 µM	127	136
46.1 µM	132	112

NC1(c2ccc(-c3nc4ccn5c(=O)[nH]nc5c4cc3-c3ccccc3)cc2)CCC1
AUC of viability dose-response curve
Settings	NOMO1 [3]	P12-Ichikawa [2]	SEM cells [1]
HPLM + 10% dialyzed FBS	392	396	322
RPMI 5 mM glucose + 10% FBS	451	366	318
RPMI 5 mM glucose + 10% dialyzed FBS	423	361	298

SEM cells [4], HPLM + 10% dialyzed FBS
Settings	cell viability [%]
0.000781 µM	123
0.00234 µM	138
0.00702 µM	125
0.0211 µM	74.7
0.0632 µM	125
0.19 µM	104
0.569 µM	78.3
1.71 µM	65.1
5.12 µM	43.8
15.4 µM	37.9
46.1 µM	14.4

CCCc1nc(C(C)(C)O)c(C(=O)O)n1Cc1ccc(-c2ccccc2-c2nn[nH]n2)cc1
AUC of viability dose-response curve
Settings	HPLM + 10% dialyzed FBS	RPMI 5 mM glucose + 10% FBS	RPMI 5 mM glucose + 10% dialyzed FBS
NOMO1 [3]	439	454	461
P12-Ichikawa [2]	448	452	413

cell viability [%]
Settings	NOMO1 [6]	P12-Ichikawa [5]	SEM cells [4]
HPLM + 10% dialyzed FBS, 0.000781 µM	97.7	111	104
HPLM + 10% dialyzed FBS, 0.00234 µM	111	115	116
HPLM + 10% dialyzed FBS, 0.00702 µM	107	112	97.3
HPLM + 10% dialyzed FBS, 0.0211 µM	114	117	112
HPLM + 10% dialyzed FBS, 0.0632 µM	119	115	119
HPLM + 10% dialyzed FBS, 0.19 µM	120	125	116
HPLM + 10% dialyzed FBS, 0.569 µM	149	120	58.6
HPLM + 10% dialyzed FBS, 1.71 µM	115	119	60
HPLM + 10% dialyzed FBS, 5.12 µM	113	122	118
HPLM + 10% dialyzed FBS, 15.4 µM	119	125	120
HPLM + 10% dialyzed FBS, 46.1 µM	126	128	110
RPMI 5 mM glucose + 10% FBS, 0.000781 µM	107	109	76.4
RPMI 5 mM glucose + 10% FBS, 0.00234 µM	103	114	88.1
RPMI 5 mM glucose + 10% FBS, 0.00702 µM	105	102	69.3
RPMI 5 mM glucose + 10% FBS, 0.0211 µM	110	110	76.7
RPMI 5 mM glucose + 10% FBS, 0.0632 µM	105	116	84.5
RPMI 5 mM glucose + 10% FBS, 0.19 µM	125	130	76.5
RPMI 5 mM glucose + 10% FBS, 0.569 µM	123	124	69
RPMI 5 mM glucose + 10% FBS, 1.71 µM	113	123	46.8
RPMI 5 mM glucose + 10% FBS, 5.12 µM	112	126	79.2
RPMI 5 mM glucose + 10% FBS, 15.4 µM	114	138	82.6
RPMI 5 mM glucose + 10% FBS, 46.1 µM	124	109	62.3
RPMI 5 mM glucose + 10% dialyzed FBS, 0.000781 µM	106	103	96
RPMI 5 mM glucose + 10% dialyzed FBS, 0.00234 µM	104	70.5	104
RPMI 5 mM glucose + 10% dialyzed FBS, 0.00702 µM	115	107	109
RPMI 5 mM glucose + 10% dialyzed FBS, 0.0211 µM	116	107	98.5
RPMI 5 mM glucose + 10% dialyzed FBS, 0.0632 µM	114	117	104
RPMI 5 mM glucose + 10% dialyzed FBS, 0.19 µM	117	118	109
RPMI 5 mM glucose + 10% dialyzed FBS, 0.569 µM	124	116	90.3
RPMI 5 mM glucose + 10% dialyzed FBS, 1.71 µM	113	117	56
RPMI 5 mM glucose + 10% dialyzed FBS, 5.12 µM	128	118	103
RPMI 5 mM glucose + 10% dialyzed FBS, 15.4 µM	126	128	105
RPMI 5 mM glucose + 10% dialyzed FBS, 46.1 µM	112	135	103

COC1CCC(C(=O)c2ccc3nc4c(cc3c2)CCCO4)CC1 (configuration not stated)
AUC of viability dose-response curve
Settings	NOMO1 [3]	P12-Ichikawa [2]	SEM cells [1]
HPLM + 10% dialyzed FBS	421	458	458
RPMI 5 mM glucose + 10% FBS	430	453	422
RPMI 5 mM glucose + 10% dialyzed FBS	437	460	438

O=C(Nc1ccccc1Br)N[C@@H]1CCN(c2ccc(C(F)(F)F)cn2)C1
AUC of viability dose-response curve
Settings	NOMO1 [3]	P12-Ichikawa [2]	SEM cells [1]
HPLM + 10% dialyzed FBS	448	448	469
RPMI 5 mM glucose + 10% FBS	432	443	461
RPMI 5 mM glucose + 10% dialyzed FBS	447	454	469

cell viability [%], SEM cells [4]
Settings	HPLM + 10% dialyzed FBS	RPMI 5 mM glucose + 10% FBS
0.000781 µM	119	117
0.00234 µM	121	94.6
0.00702 µM	136	107
0.0211 µM	131	122
0.0632 µM	127	113
0.19 µM	121	112
0.569 µM	126	105
1.71 µM	133	112
5.12 µM	122	98.9
15.4 µM	120	106
46.1 µM	117	85

O=C1c2c(O)cc(O)cc2O[C@H](c2ccc(O)c(O)c2)[C@H]1O
AUC of viability dose-response curve
Settings	NOMO1 [3]	P12-Ichikawa [2]	SEM cells [1]
HPLM + 10% dialyzed FBS	469	459	454
RPMI 5 mM glucose + 10% FBS	475	453	470
RPMI 5 mM glucose + 10% dialyzed FBS	453	465	450

cell viability [%], SEM cells [4]
Settings	HPLM + 10% dialyzed FBS	RPMI 5 mM glucose + 10% FBS
0.000781 µM	113	121
0.00234 µM	120	123
0.00702 µM	132	136
0.0211 µM	113	150
0.0632 µM	117	126
0.19 µM	125	126
0.569 µM	127	122
1.71 µM	143	122
5.12 µM	126	127
15.4 µM	127	125
46.1 µM	131	128

OC[C@H]1O[C@H](C[C@@H]1O)[N]2C=NC3=C2\N=C/NC[C@H]3O
AUC of viability dose-response curve
Settings	NOMO1 [3]	P12-Ichikawa [2]	SEM cells [1]
HPLM + 10% dialyzed FBS	444	457	450
RPMI 5 mM glucose + 10% FBS	465	457	466
RPMI 5 mM glucose + 10% dialyzed FBS	434	475	469
